A value given as a limit tells only on which side of the number the result lay.

The subject of data set [1] is Fusarium culmorum. The data set is described as follows: Protection of seedlings against plant pathogenic seed fungus by seed treatment (wheat). It counts as in vivo. The settings on record: wheat seed infested with Fusarium culmorum; 3 g composition (10% by weight in kaolin) per kg of seed; after three weeks, 8°-12° C.; untreated 67. The procedure: Test with respect to the protection of seedlings against a plant pathogenic seed fungus, namely Fusarium culmorum, by means of a seed treatment.
Wheat seed, infested with Fusarium culmorum, is treated with the substance to be tested in the form of a composi tion in a quantity of 3 g per kg of seed. The composition is obtained by pulverising the substance to be tested and then intimately mixing with kaolin in a concentration of 10% by weight. The seed thus treated is sown in a tray containing soil which is placed in a Wisconsin tank with a bottom temperature of 8°-12° C. After three weeks the number of emerged and healthy plants is determined. The emergence of healthy plants from untreated seed serves as control. For comparison, the known substances 2-methylsulphinyl-4-methyl-5-nitrothiazole (a), 2-methylsulphinyl-3-nitrothiophene (b) and 2-ethylsulphinyl-3-nitro-5-acetylthiophene (c) mentioned hereinbefore are also tested. In the examples, the numbers of the compounds refer to the specification.

Data set [2] deals with soil-borne and seed-borne pathogenic micro-organisms. Nature of the data set: Fungicidal activity in practice (general statement). The settings on record: in words.
The test system of data set [3] is warm-blooded living beings. Nature of the data set: Toxicity with respect to warm-blooded living beings (general statement). The settings on record: in words.
The subject of another data set is Pythium spp. The data set is described as follows: Protection of seedlings against plant-pathogenic soil fungus by seed treatment (beet). It counts as in vivo. The settings on record: after 3 weeks, 18°-22° C., untreated 72. The method, then:
Test with respect to the protection of seedlings against a plant-pathogenicsoil fungus, namely Pythium spp., by means of a seed treatment.
The compounds to be tested are processed to compositions by pulverising them and then mixing them intimately with kaolin in the desired concentration (see Table B). Beet seed is treated with these compositions in a quantity of 6 g of composition per kg of seed and then sown in trays with soil which was seriously infested with Pythium spp. After 3 weeks in a glass-house at 18°-22° C. and a relative humidity of 70-100%, the percentage of non-emerged and diseased seedlings (damping-off) is determined. The results are recorded in Table B. For comparison, the known substance 2-methylsulphinyl-4-methyl-5-nitrothiazole(a) is also tested.

The nature of data set [4]: Acute oral toxicity (lethal dose) in male mice. The settings on record: mouse, in vivo, acute mortality, mg/kg of body weight. The method, then:
Toxicity with respect to warm-blooded living beings.
The LD50 is determined by orally administering the substance to be tested to male mice and determining the acute mortality. In Table C below, the LD50 is recorded in mg/kg of body weight.
For comparison, the known compound (b) (see EXAMPLE XV) is also tested.

The test system of a further data set is Pyrenophora graminea. Nature of the data set: In vitro test on activity against Pyrenophora graminea. It counts as cell-based. The settings on record: 48 hours, 20° C., read-out: % growth inhibition of the fungus. The procedure: In vitro test on activity against Pyrenophora graminea.
The compound to be tested is processed in a culture medium consisting of 1% by weight of glucose, 0.2% by weight of a yeast extract (marmite), 0.5% by weight of a protein (pepton), 2.5% by weight of agar-agar, and 95.8% by weight of water, in petri dishes in concentrations of 3 and 10 ppm. The petri dishes are inoculated with the plant-pathogenic fungus Pyrenophora graminea and then kept at a temperature of 20° C. After 48 hours the growth-inhibiting activity of the compounds is determined visually. For comparison, the known substance (b) (see EXAMPLE XV) is also tested.

Data set [5] relates to Fusarium culmorum. The data set is described as follows: In vitro test on activity against Fusarium culmorum. It counts as cell-based. The settings on record: read-out: growth inhibition of the fungus.
The subject of a further data set is Leptosphaeria nodorum. The data set is described as follows: In vitro test on activity against Leptosphaeria nodorum. It counts as cell-based. The settings on record: Parastagonospora nodorum, read-out: growth inhibition of the fungus. In short, it runs like this:
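Compounds were incorporated at 3 and 10 ppm into glucose/yeast extract/peptone agar plates inoculated with the fungus. Plates were held at 20 °C, and growth inhibition was scored visually after 48 h.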

The next data set concerns Pythium splendens. The data set is described as follows: In vitro test on activity against Pythium splendens. It counts as cell-based. The settings on record: Globisporangium splendens, read-out: growth inhibition of the fungus.
Another data set deals with Rhizoctonia solani. Nature of the data set: In vitro test on activity against Rhizoctonia solani. It counts as cell-based. The settings on record: read-out: growth inhibition of the fungus. The method, then:
The compound to be tested is processed in a culture medium consisting of 1% by weight of glucose, 0.2% by weight of a yeast extract (marmite), 0.5% by weight of a protein (pepton), 2.5% by weight of agar-agar, and 95.8% by weight of water, […] The petri dishes are inoculated with the plant-pathogenic fungus Pyrenophora graminea and then kept at a temperature of 20° C. After 48 hours the growth-inhibiting activity of the compounds is determined visually. For comparison, the known substance (b) (see EXAMPLE XV) is also tested.
Compounds according to the invention are tested on Rhizoctonia solani in the same manner as described in EXAMPLE XIX.

Setting [6] is: 600 mg of active substance per kg of seed.
[7] abbreviates: 1200 mg of active substance per kg of seed.

Turning to `CC[S+]([O-])c1sc(C(C)=O)cc1[N+](=O)[O-]` (centres unmarked) [(c), 2-ethylsulphinyl-3-nitro-5-acetylthiophene], the “Percentage of emerged, healthy plants” value with Fusarium culmorum [1] was found to be 74%. Also, the activity result in data set [2] is “leaves to be desired in practice”. Further, the “toxicity with respect to warm-blooded living beings” value in data set [3] is reported as “undesired toxicity”.
Regarding `CC[S+]([O-])c1sc(C#N)c(Cl)c1C#N` (centres unmarked) [(7), 2-ethylsulphinyl-3,5-dicyano-4-chlorothiophene], the “Percentage of emerged, healthy plants” value in the data set on Fusarium culmorum [1] is given as 98%. Also, the percentage damping-off in the data set with Pythium spp. (setting [6]) and with Pythium spp. (setting [7]) was 17% throughout. In addition, the median lethal dose (LD50) (in general, the dose at which mortality reaches 50%) in data set [4] turned out to be 400 mg/kg. Also, the inhibition (in general, the percentage by which the read-out fell short of the control) at 3 ppm in the data set on Pyrenophora graminea was 59%. In addition, the inhibition at 10 ppm in the data set on Pyrenophora graminea was 83%; in the data set on Pythium splendens, at least 95%. The figures for the inhibition at 30 ppm in the data set on Fusarium culmorum [5] and in the data set on Leptosphaeria nodorum were at least 75% and at least 85%, respectively.
In the case of `C[S+]([O-])c1sc(C#N)c(Cl)c1C#N` (centres unmarked) [(3), 2-methylsulphinyl-3,5-dicyano-4-chlorothiophene], the “Percentage of emerged, healthy plants” value in the data set on Fusarium culmorum [1] was found to be 91%. The percentage damping-off is given as 6% in the data set on Pythium spp. (setting [6]) and 5% with Pythium spp. (setting [7]). The inhibition at 3 ppm with Pyrenophora graminea worked out at 57%. Moreover, the inhibition at 10 ppm is 80% in the data set with Pyrenophora graminea and at least 95% in the data set on Pythium splendens. The inhibition at 30 ppm with Fusarium culmorum [5] was at least 75%; in the data set on Leptosphaeria nodorum, at least 85%; with Rhizoctonia solani, at least 75%.
In the case of `CC[S+]([O-])c1sc(C(C)=O)c(N)c1C#N` (centres unmarked) [(10), 2-ethylsulphinyl-3-cyano-4-amino-5-acetylthiophene], the “Percentage of emerged, healthy plants” value with Fusarium culmorum [1] was found to be 98%. Besides, the percentage damping-off was 10% in the data set with Pythium spp. (setting [6]) and 9% in the data set on Pythium spp. (setting [7]). This molecule gave a median lethal dose (LD50) in data set [4] of 141 mg/kg. In the data set with Leptosphaeria nodorum, the inhibition at 30 ppm is at least 85%. Moreover, in the data set on Pythium splendens, the inhibition at 10 ppm was at least 95%.
For `CC[S+]([O-])c1sc(C#N)c(OC)c1C#N` (centres unmarked) [(13), 2-ethylsulphinyl-3,5-dicyano-4-methoxythiophene], the “Percentage of emerged, healthy plants” value in the data set with Fusarium culmorum [1] was determined as 90%. Besides, the results for the percentage damping-off in the data set with Pythium spp. (setting [6]) and in the data set with Pythium spp. (setting [7]) were 3% and 1%, respectively. The same molecule had a 50% lethal dose (LD50) in data set [4] of 130 mg/kg. In addition, the inhibition at 30 ppm is at least 75% in the data set on Fusarium culmorum [5] and at least 85% in the data set on Leptosphaeria nodorum. The inhibition at 10 ppm in the data set with Pythium splendens was at least 95%.
For the molecule `Cc1nc([S+](C)[O-])sc1[N+](=O)[O-]` (centres unmarked) [(a), 2-methylsulphinyl-4-methyl-5-nitrothiazole, reference compound], in the data set with Fusarium culmorum [1], the “Percentage of emerged, healthy plants” value is on record as 68%. The percentage damping-off in the data set with Pythium spp. (setting [6]) was found to be 57%; with Pythium spp. (setting [7]), 45%. Also, the activity entry in data set [2] is listed as “insufficiently active”.
Regarding `C[S+]([O-])c1sc(C#N)cc1C#N` (centres unmarked) [(4), 2-methylsulphinyl-3,5-dicyanothiophene], in the data set on Fusarium culmorum [1], the “Percentage of emerged, healthy plants” value is recorded as 90%. Further, the results for the percentage damping-off with Pythium spp. (setting [6]) and in the data set with Pythium spp. (setting [7]) were 10% and 9%, respectively. Moreover, the inhibition at 3 ppm in the data set with Pyrenophora graminea was found to be 66%. Moreover, the results for the inhibition at 10 ppm in the data set with Pyrenophora graminea and with Pythium splendens were 84% and at least 95%, respectively. Further, the inhibition at 30 ppm with Leptosphaeria nodorum is at least 85%; with Rhizoctonia solani, at least 75%.
For the molecule `CC(=O)c1sc([S+](C)[O-])c(C#N)c1Cl` (centres unmarked) [(2), 2-methylsulphinyl-3-cyano-4-chloro-5-acetylthiophene], the “Percentage of emerged, healthy plants” value with Fusarium culmorum [1] is recorded as 87%. The percentage damping-off in the data set with Pythium spp. (setting [6]) amounted to 7%; in the data set with Pythium spp. (setting [7]) it was 6%. In addition, in the data set with Pyrenophora graminea, the inhibition at 3 ppm is 64%. The inhibition at 10 ppm in the data set with Pyrenophora graminea is 79%; in the data set on Pythium splendens, at least 95%. Also, the inhibition at 30 ppm was at least 75% in the data set with Fusarium culmorum [5], at least 85% with Leptosphaeria nodorum and at least 75% with Rhizoctonia solani.
Turning to `C[S+]([O-])c1sccc1[N+](=O)[O-]` (centres unmarked) [(b), 2-methylsulphinyl-3-nitrothiophene, reference compound], the “Percentage of emerged, healthy plants” value in the data set with Fusarium culmorum [1] turned out to be 75%. In data set [4], this molecule came in with an LD50 of 31.6 mg/kg. For the same molecule, in the data set with Pyrenophora graminea, the inhibition at 3 ppm was determined as 0% and the inhibition at 10 ppm was 37%. The activity entry in data set [2] was “leaves to be desired in practice”. Also, the “toxicity with respect to warm-blooded living beings” value in data set [3] is on record as “undesired toxicity”.
In turn, `CCC[S+]([O-])c1sc(C#N)c(Cl)c1C#N` (centres unmarked) [(33), 2-n-propylsulphinyl-3,5-dicyano-4-chlorothiophene] gave an LD50 in [4] of 246 mg/kg. In addition, the figures for the inhibition at 10 ppm with Pyrenophora graminea and in the data set on Pythium splendens were 83% and at least 95%, respectively. Moreover, the inhibition at 30 ppm in the data set with Fusarium culmorum [5] is at least 75%; with Leptosphaeria nodorum, at least 85%; in the data set with Rhizoctonia solani, at least 75%.
As for `CCCC[S+]([O-])c1sc(C#N)c(Cl)c1C#N` (centres unmarked) [(43), 2-n-butylsulphinyl-3,5-dicyano-4-chlorothiophene], in [4], the 50% lethal dose (LD50) turned out to be 246 mg/kg. Besides, the inhibition at 10 ppm is 72% in the data set on Pyrenophora graminea and at least 95% in the data set on Pythium splendens. In addition, the results for the inhibition at 30 ppm with Fusarium culmorum [5], in the data set on Leptosphaeria nodorum and in the data set with Rhizoctonia solani were at least 75%, at least 85% and at least 75%, respectively.
In the case of `CC[S+]([O-])c1sc(C#N)cc1C#N` (centres unmarked) [(8), 2-ethylsulphinyl-3,5-dicyanothiophene], the “Percentage of emerged, healthy plants” value with Fusarium culmorum [1] is 92%. In addition, the figures for the percentage damping-off in the data set on Pythium spp. (setting [6]) and in the data set with Pythium spp. (setting [7]) were 16% and 12%, respectively. For the same molecule, the median lethal dose (LD50) in data set [4] was 119 mg/kg. Moreover, the inhibition at 3 ppm in the data set on Pyrenophora graminea was 49%. Also, the inhibition at 10 ppm is 72% with Pyrenophora graminea and at least 95% with Pythium splendens.

For the origin of these results see patent publication US4994485A, “Thio compounds having fungicidal activity” (Duphar International Research B.V., priority 1986, dated 1991).
